According to patent publication US20250084035A1, “POLYMORPHIC FORM OF MEISOINDIGO AND MODIFIED FORMULATION OF MEISOINDIGO” (STATIA BIOPHARMA INC., priority 2018, published 2025):

Legend:
[1] = Particle size and distribution, Malvern Mastersizer 2000; assay type: physicochemical; settings: for Particle size d10 / Particle size d50 / Particle size d90: Crystal Form I, Malvern Mastersizer 2000; for Particle Size Distribution Ratio: calculated as (d90-d10)/d50
Protocol: Crystal Form I was analyzed for its particle size and distribution. Five batches were tested using a Malvern Mastersizer 2000 (MIIA14730, Malvern, UK).

[2] = Solubility in solvents (descriptive); assay type: physicochemical
[3] = test system: ulcerative colitis; assay: Clinical trial in ulcerative colitis; assay type: in vivo, humans; settings: recent clinical trial
[4] = test system: leukemia cells; settings: cited from earlier work

Row | Compound | Particle size d10 [1] | Particle size d50 [1] | Particle size d90 [1] | Particle Size Distribution Ratio [1] | Solubility ([2]; in acetone) | Solubility ([2]; in chloroform) | Solubility ([2]; in ethanol) | Solubility ([2]; in water) | Efficacy against ulcerative colitis [3] | Side effects [3] | Cell cycle effect ([4]; leukemia cells) | Expression of oncogene c-myb ([4]; leukemia cells) | Cell growth ([4]; low concentrations, without a decrease in cell viability)
1 | CN1C(=O)/C(=C2/C(=O)Nc3ccccc32)c2ccccc21 [NAT-1201, N-methylisoindigo] | 3.599 μm | 13.301 μm | 26.897 μm | 1.75 |  |  |  |  |  |  |  |  | 
2 | CN1C(=O)/C(=C2/C(=O)Nc3ccccc32)c2ccccc21 [NAT-0801, N-methylisoindigo] | 3.249 μm | 12.268 μm | 23.99 μm | 1.69 |  |  |  |  |  |  |  |  | 
3 | CN1C(=O)/C(=C2/C(=O)Nc3ccccc32)c2ccccc21 [NAT-1203, N-methylisoindigo] | 5.295 μm | 15.674 μm | 30.015 μm | 1.58 |  |  |  |  |  |  |  |  | 
4 | CN1C(=O)/C(=C2/C(=O)Nc3ccccc32)c2ccccc21 [NAT-1202, N-methylisoindigo] | 5.035 μm | 15.603 μm | 30.339 μm | 1.62 |  |  |  |  |  |  |  |  | 
5 | CN1C(=O)/C(=C2/C(=O)Nc3ccccc32)c2ccccc21 [N-methylisoindigo] |  |  |  |  | sparingly soluble | sparingly soluble | sparingly soluble | slightly soluble | very effective | no significant side effects | arrests leukemia cells at G phase | inhibits | completely inhibited
6 | CN1C(=O)/C(=C2/C(=O)Nc3ccccc32)c2ccccc21 [NAT-0601, N-methylisoindigo] | 2.506 μm | 12.464 μm | 25.635 μm | 1.86 |  |  |  |  |  |  |  |  | 
